The test system of test [1] is cyclophosphamide-induced pollakiuria model rats. Description: Effects in cyclophosphamide-induced pollakiuria model rats (continuous cystometrograms). Format: in vivo, rat. To be noted: 5 mg/kg intravenous; 20 minutes after vs 20 minutes before administration; compared to the vehicle group, p<0.05. As for the experimental part:
In the experiments, 6 to 7 female SD rats of 7 to 11 weeks old were used for one experimental group. The pollakiuria model (Lecci A et al., British Journal of Pharmacology, 2000, vol. 130, p. 331) was prepared by intraperitoneally administering cyclophosphamide (SIGMA) to rats (150 mg/kg). This model has been considered to be useful as a model of urine storage disorders associated with inflammatory disease, in particular, a model of pollakiuria of interstitial cystitis. Four to five hours after administration of cyclophosphamide, pollakiuria model rats were anesthetized by intraperitoneal administration of urethane (1 g/kg). Thereafter, a small incision was formed in the hypogastrium, and both ureters were ligated, followed by forming small incision in the ureters at the side of the kidney. Next, the bladder apex of each pollakiuria model rat was incised, and a polyethylene tube filled with physiological saline was inserted and indwelled. […]
The number of voiding episodes was counted based on CMGs. Taking the number of voiding episodes counted for a time period of 20 minutes before the administration of the test compound as 100%, the number of voiding episodes counted for a time period of 20 minutes after the administration of the test compound was expressed in %, which was used as the ratio of change in the number of voiding episodes. […]

In test [2] the target is T1, human muscarinic M1 receptor (Homo sapiens, UniProt P11229).
T1 construct: expressed in transfected cells; host or cells: CHO cells
T1 sequence (P11229 1-460): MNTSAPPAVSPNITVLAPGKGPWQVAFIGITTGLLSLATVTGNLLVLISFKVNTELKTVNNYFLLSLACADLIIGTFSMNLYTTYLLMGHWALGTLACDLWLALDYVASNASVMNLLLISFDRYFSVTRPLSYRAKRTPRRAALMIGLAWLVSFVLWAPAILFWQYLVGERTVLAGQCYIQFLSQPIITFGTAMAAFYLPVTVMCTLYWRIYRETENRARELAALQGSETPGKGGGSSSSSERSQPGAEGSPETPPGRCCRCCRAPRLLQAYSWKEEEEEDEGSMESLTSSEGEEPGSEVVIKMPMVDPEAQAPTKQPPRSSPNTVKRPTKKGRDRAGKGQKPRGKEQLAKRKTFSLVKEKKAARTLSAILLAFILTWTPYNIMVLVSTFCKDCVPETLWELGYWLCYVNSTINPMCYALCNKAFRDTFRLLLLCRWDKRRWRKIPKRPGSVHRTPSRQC
Nature of the test: Binding ability to human muscarinic receptors ([3H]N-Methylscopolamine). To be noted: 0.8 nmol/L [3H]N-Methylscopolamine, CHO cells. As for the experimental part:
(§1) CHO cells expressing human muscarinic M1, 2, 3, 4 and 5 receptors, respectively, were used (Buckley N J et al., Mol. Pharmacol., 1989, vol. 35, no. 4, p. 469-476). Receptor binding experiments were carried out according to a conventional method (Luthin G R et al., Pharmacol Exp Ther., 1984, vol. 228, no. 3, p. 648-655). As a radiolabeled ligand, 0.8 nmol/L [^3H]N-Methylscopolamine was used; and as a nonspecific ligand, 1 μmol/L Atoropine was used.

The target in test [3] is T2, human muscarinic M2 receptor (Homo sapiens, UniProt P08172).
T2 construct: expressed in transfected cells; host or cells: CHO cells
T2 sequence (P08172 1-466): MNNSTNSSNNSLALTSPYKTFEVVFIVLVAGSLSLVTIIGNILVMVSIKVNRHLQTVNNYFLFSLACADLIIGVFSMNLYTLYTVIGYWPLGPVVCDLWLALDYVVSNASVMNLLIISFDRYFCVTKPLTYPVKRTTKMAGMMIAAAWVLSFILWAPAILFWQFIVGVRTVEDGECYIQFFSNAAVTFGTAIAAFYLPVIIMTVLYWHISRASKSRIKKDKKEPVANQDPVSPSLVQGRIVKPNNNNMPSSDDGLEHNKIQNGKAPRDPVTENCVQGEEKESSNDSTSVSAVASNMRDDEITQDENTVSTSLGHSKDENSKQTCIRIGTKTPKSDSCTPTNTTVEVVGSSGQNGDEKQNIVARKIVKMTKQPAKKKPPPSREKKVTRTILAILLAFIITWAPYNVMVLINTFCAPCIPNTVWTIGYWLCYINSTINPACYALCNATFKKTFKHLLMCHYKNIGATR
The test is described as above. As to conditions: 0.8 nmol/L [3H]N-Methylscopolamine, CHO cells. As for the experimental part: as §1

Test [4] has as its target T3, human muscarinic M3 receptor (Homo sapiens, UniProt P20309).
T3 construct: expressed in transfected cells; host or cells: CHO cells
The test is described as above. To be noted: 0.8 nmol/L [3H]N-Methylscopolamine, CHO cells. As for the experimental part:
as §1

In test [5] the target is T4, human muscarinic M4 receptor (Homo sapiens, UniProt P08173).
T4 construct: expressed in transfected cells; host or cells: CHO cells
T4 sequence (P08173 1-479): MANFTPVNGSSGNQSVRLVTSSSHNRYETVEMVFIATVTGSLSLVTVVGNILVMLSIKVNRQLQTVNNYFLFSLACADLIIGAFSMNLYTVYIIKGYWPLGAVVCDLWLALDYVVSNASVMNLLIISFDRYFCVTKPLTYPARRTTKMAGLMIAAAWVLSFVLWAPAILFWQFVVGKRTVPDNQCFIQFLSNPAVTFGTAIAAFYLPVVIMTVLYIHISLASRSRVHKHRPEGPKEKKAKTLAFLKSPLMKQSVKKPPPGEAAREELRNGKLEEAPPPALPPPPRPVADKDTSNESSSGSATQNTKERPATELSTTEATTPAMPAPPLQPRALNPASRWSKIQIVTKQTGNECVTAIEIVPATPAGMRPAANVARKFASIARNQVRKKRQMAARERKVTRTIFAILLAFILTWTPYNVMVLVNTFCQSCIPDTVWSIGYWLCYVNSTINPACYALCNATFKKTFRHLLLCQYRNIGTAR
The description is as above. To be noted: 0.8 nmol/L [3H]N-Methylscopolamine, CHO cells. As for the experimental part:
as §1

Test [6] has as its target T5, human muscarinic M5 receptor (Homo sapiens, UniProt P08912).
T5 construct: expressed in transfected cells; host or cells: CHO cells
T5 sequence (P08912 1-532): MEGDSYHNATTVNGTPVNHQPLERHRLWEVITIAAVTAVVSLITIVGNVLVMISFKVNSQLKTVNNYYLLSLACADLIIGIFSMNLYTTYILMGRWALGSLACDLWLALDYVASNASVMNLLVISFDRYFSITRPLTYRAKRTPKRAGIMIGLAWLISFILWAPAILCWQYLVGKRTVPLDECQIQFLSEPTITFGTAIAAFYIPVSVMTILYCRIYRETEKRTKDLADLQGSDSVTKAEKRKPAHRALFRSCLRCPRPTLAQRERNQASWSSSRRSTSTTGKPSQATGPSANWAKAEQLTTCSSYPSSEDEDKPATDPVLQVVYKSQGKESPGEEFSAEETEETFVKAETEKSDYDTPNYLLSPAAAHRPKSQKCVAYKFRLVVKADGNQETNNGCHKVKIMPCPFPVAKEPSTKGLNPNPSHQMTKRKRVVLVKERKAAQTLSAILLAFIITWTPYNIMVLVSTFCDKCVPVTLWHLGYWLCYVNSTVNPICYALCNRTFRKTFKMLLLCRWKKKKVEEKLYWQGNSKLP
Described as above. As to conditions: 0.8 nmol/L [3H]N-Methylscopolamine, CHO cells. The protocol:
as §1

Test [7] concerns muscarinic receptor subtypes. Nature of the test: Binding ability to human muscarinic receptors, overall statement. As to conditions: any of M1 to M5; 10 μmol/L. As for the experimental part: as §1
Test [8] concerns mouse acetic acid writhing model. Nature of the test: Mouse acetic acid writhing model (effects on pain). To be noted: oral, 45 minutes before 0.6% acetic acid i.p., read-out: ED50 (dose by which the writhing response was inhibited by 50%). It is filed as in vivo. As for the experimental part: The mouse acetic acid writhing model, by which pain can be evaluated, was used to evaluate the analgesic effect of Compound (I).
Male ddY mice of 5 to 6 weeks old were fasted for 16 hours while allowing them to freely drink water, and a test compound solution or its vehicle was orally administered (10 mL/kg) to them. DMSO:Tween80:distilled water (1:1:8) or 27% hydroxypropyl-β-cyclodextrin (hereinafter “HP-β-CD”) was used as a vehicle of test compound solutions. Forty five minutes after the administration, 0.6% acetic acid solution (10 mL/kg) was intraperitoneally administered thereto to induce writhing response (i.e., the behavior to stretch the body and/or bend the body backward). The number of the writhing response observed for 10 minutes from 10 minutes after the administration of acetic acid solution was counted, which was taken as an indicator of pain.
Taking the mean number of writhing response of the vehicle group as 100%, the dose of a test compound by which the response was inhibited by 50% was expressed as “ED50”.

Read-outs that look alike come from different tables or passages of the source.

T3 sequence (P20309 whole entry): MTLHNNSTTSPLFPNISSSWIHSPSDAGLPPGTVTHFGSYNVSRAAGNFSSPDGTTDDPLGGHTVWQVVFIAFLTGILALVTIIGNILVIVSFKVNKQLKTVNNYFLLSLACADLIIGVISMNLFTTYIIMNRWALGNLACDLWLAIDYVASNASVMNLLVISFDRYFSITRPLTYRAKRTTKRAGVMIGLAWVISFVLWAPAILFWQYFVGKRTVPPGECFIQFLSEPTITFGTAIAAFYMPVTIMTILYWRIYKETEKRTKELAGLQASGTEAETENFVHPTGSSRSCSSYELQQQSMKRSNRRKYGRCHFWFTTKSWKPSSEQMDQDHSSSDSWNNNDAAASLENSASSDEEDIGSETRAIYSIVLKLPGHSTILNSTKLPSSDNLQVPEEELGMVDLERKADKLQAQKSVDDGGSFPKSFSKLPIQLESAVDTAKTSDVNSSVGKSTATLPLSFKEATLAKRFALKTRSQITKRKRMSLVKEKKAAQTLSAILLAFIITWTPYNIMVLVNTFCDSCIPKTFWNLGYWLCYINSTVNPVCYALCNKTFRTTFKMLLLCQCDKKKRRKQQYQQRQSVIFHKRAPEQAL

As for `COc1ccc(-n2nc(C3(O)CCC(O)CC3)cc2-c2ccc(C)cc2)cc1` (stereo not drawn) [Compound 3, 1-(1-(4-methoxyphenyl)-5-(p-tolyl)-1H-pyrazol-3-yl)cyclohexan-cis-1,4-diol], in test [1], the “increase in the number of voiding episodes (ratio of change in the number of voiding episodes)” value is “significantly improved”. For the same molecule, the “Inhibition Ratio by 10 μmol/L Compound 3 (%)” value in test [2] is reported as −10%; in test [3], −6%; in test [4] it was −4%; in test [5] it was −1%; in test [6] it was −4%. Besides, the “binding to muscarinic receptor subtypes” value in test [7] is recorded as “did not bind”. For `COc1ccc(-n2nc(C3(O)CCC(=O)CC3)cc2-c2ccc(C)cc2)cc1` [Compound 4, 4-hydroxy-4-(1-(4-methoxyphenyl)-5-(p-tolyl)-1H-pyrazol-3-yl)cyclohexan-1-one], the ED50 (commonly the dose that gives a 50% effect, or the effect in half of the subjects) in test [8] (Vehicle A (DMSO:Tween80:distilled water=1:1:8)) turned out to be 1.95 mg/kg. In the case of `COc1ccc(-n2nc(C3(O)CCC(OC(C)=O)CC3)cc2-c2ccc(C)cc2)cc1` (stereo not shown) [Compound 12, c-4-hydroxy-4-(1-(4-methoxyphenyl)-5-(p-tolyl)-1H-pyrazol-3-yl)-cyclohexan-r-1-yl acetate], the ED50 in test [8] (Vehicle B (HP-β-CD)) came to 1.77 mg/kg. In the case of `COc1ccc(-n2nc(C3(O)CCC(O)CC3)cc2-c2ccc(C)nc2)cc1` (stereo not drawn) [Compound 15, 1-(1-(4-methoxyphenyl)-5-(6-methylpyridin-3-yl)-1H-pyrazol-3-yl)cyclohexan-cis-1,4-diol], the ED50 in test [8] (Vehicle B (HP-β-CD)) was 6.07 mg/kg. As to `COc1ccc(-c2nc(C3(O)CCC(O)(C(F)(F)F)CC3)sc2-c2ccc(C)cc2)cc1` (stereo not drawn) [Compound 46, 1-(4-(4-methoxyphenyl)-5-(p-tolyl)thiazol-2-yl)-4-(trifluoromethyl)cyclohexan-cis-1,4-diol], the ED50 in test [8] (Vehicle B (HP-β-CD)) was 9.65 mg/kg.

`Cc1ccc(-c2cc(C3(O)CCC(O)CC3)nn2-c2ccc(C#N)cc2)cc1` (stereo not shown) [Compound 49]: the ED50 in test [8] (Vehicle B (HP-β-CD)) was determined as 2.69 mg/kg. With `COc1ccc(-n2nc(C3(O)CCC(O)CC3)cc2-c2ccc(C#N)cc2)cc1` (stereo not shown) [Compound 51], in test [8] (Vehicle B (HP-β-CD)), the ED50 was 4.69 mg/kg. `COc1ccc(-n2nc(C3(O)CCC(O)CC3)cc2-c2ccc(C)cc2)cc1F` (stereo not shown) [Compound 54]: in test [8] (Vehicle B (HP-β-CD)), the ED50 worked out at 3.73 mg/kg. Still for that read-out and setting: then `COc1ccc(-n2nc(C3(O)CCC(OC(=O)OC4CCCCC4)CC3)cc2-c2ccc(C)cc2)cc1` (stereo not drawn) [Compound 60, cyclohexyl 4-hydroxy-4-(1-(4-methoxyphenyl)-5-(p-tolyl)-1H-pyrazol-3-yl)-cis-cyclohexyl carbonate], with 6.18 mg/kg; and `CCOC(=O)OC1CCC(O)(c2cc(-c3ccc(C)cc3)n(-c3ccc(OC)cc3)n2)CC1` (stereo not shown) [Compound 61], with 4.79 mg/kg.

The values above are taken from patent US8642625B2, “Therapeutic agent or preventive agent for urine collection disorder” (Toray Industries, Inc., priority 2010, dated 2014).
